# In US4994465A, “Antihyperlipidemic and antiatherosclerotic trisubstituted urea compounds” (Warner-Lambert Company, priority 1990, dated 1991):
# pIC50: −log10 of the molar value.
# Biological target: T1, acyl-CoA:cholesterol acyltransferase (ACAT) (Oryctolagus cuniculus, UniProt G1SFD9)
# T1 construct: a tissue preparation containing rabbit intestinal microsomes; from tissue; host or cells: rabbit intestinal microsomes
# T1 sequence (G1SFD9 1-524): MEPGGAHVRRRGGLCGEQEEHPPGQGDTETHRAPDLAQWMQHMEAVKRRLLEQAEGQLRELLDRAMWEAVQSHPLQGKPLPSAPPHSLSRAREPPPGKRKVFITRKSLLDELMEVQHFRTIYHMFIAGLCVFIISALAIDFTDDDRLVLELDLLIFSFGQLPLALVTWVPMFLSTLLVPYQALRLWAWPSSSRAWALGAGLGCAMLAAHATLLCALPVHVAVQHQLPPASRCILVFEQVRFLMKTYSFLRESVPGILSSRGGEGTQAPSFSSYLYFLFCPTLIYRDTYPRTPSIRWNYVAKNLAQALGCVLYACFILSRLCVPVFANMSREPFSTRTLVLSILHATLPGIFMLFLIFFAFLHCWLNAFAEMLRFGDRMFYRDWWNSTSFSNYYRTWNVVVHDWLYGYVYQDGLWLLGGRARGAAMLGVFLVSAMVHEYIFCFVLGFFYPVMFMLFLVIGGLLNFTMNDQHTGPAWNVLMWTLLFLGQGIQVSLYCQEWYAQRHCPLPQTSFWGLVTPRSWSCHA
# Assay: ACAT inhibition in vitro: radiolabeled cholesterol oleate formed from radiolabeled oleic acid in rabbit intestinal microsomes
# Assay type: biochemical
# Settings: concentration required to inhibit 50% expression of the enzyme
# Experimental: The ability of representative compounds of the present invention to inhibit ACAT was measured using an in vitro test more fully described in Field, F. J. and Salone, R. G., Biochemica et Biophysica 712:557-570 (1982). The test assesses the ability of a test compound to inhibit the acylation of cholesterol by oleic acid by measuring the amount of radiolabeled cholesterol oleate formed from radiolabeled oleic acid in a tissue preparation containing rabbit intestinal microsomes.
# The data appear in Table 1 where they are expressed in IC50 values; i.e., the concentration of test compound required to inhibit 50% […] of the enzyme.
row,SMILES,pIC50
1,"O=C(Nc1ccc(F)cc1F)N(Cc1ccccc1)CC(c1ccccc1)c1ccccc1 [Example 1, N'-(2,4-difluorophenyl)-N-benzyl-N-[(2,2-diphenyl)ethyl]urea]",6.54
2,"Cc1cccc(C)c1NC(=O)N(Cc1ccccc1)CC(c1ccccc1)c1ccccc1 [Example 2, N'-[(2,6-dimethyl)phenyl]-N-benzyl-N-[(2,2-diphenyl)ethyl]urea]",5.86
3,CCCCCCCN(CC1(c2ccccc2)CCCC1)C(=O)Nc1c(C)cccc1C [Example 10],7.21
4,"CCCCCCCN(CC1(c2ccccc2)CCCC1)C(=O)Nc1ccc(F)cc1F [Example 11, N'-(2,4-difluorophenyl)-N-heptyl-N-[(1-phenylcyclopentyl)methyl]urea]",6.51
5,"CCCCCCCN(CC(c1ccccc1)c1ccccc1)C(=O)Nc1c(C)cccc1C [Example 12, N'-[(2,6-dimethyl)phenyl]-N-heptyl-N-[(2,2-diphenyl)ethyl]urea]",5.89
6,"CCCCCCCN(CC(c1ccccc1)c1ccccc1)C(=O)Nc1ccc(F)cc1F [Example 13, N'-(2,4-difluorophenyl)-N-heptyl-N-[(2,2-diphenyl)ethyl]urea]",6.77

# More lines, now with the values ahead:
row,pIC50,SMILES
1,5.89,"CC(C)c1cccc(C(C)C)c1NC(=O)N(Cc1ccccc1)CC(c1ccccc1)c1ccccc1 [Example 3, N'-[2,6-bis(1-methylethyl)phenyl]-N-benzyl-N-[(2,2-diphenyl)ethyl]urea]"
2,7.05,"O=C(Nc1ccc(F)cc1F)N(Cc1ccccc1)CC1(c2ccccc2)CCCC1 [Example 4, N'-(2,4-difluorophenyl)-N-benzyl-N-[(1-phenylcyclopentyl)methyl]urea]"
3,7.29,"O=C(Nc1c(Cl)cccc1Cl)N(Cc1ccccc1)CC1(c2ccccc2)CCCC1 [Example 5, N'-(2,6-dichlorophenyl)-N-benzyl-N-[(1-phenylcyclopentyl)methyl]urea]"
4,7.10,"Cc1cc(C)c(NC(=O)N(Cc2ccccc2)CC2(c3ccccc3)CCCC2)c(C)c1 [Example 6, N'-(2,4,6-trimethylphenyl)-N-benzyl-N-[(1-phenylcyclopentyl)methyl]urea]"
5,6.77,"CC(C)c1cccc(C(C)C)c1NC(=O)N(Cc1ccccc1)CC1(c2ccccc2)CCCC1 [Example 7, N'-[2,6-bis(1-methylethyl)phenyl]-N-benzyl-N-[(1-phenylcyclopentyl)methyl]urea]"
6,7.23,"Cc1cccc(C)c1NC(=O)N(Cc1ccccc1)CC1(c2ccccc2)CCCC1 [Example 8, N'-[(2,6-dimethyl)phenyl]-N-benzyl-N-[(1-phenylcyclopentyl)methyl]urea]"
7,6.96,"CCCCCCCN(CC1(c2ccccc2)CCCC1)C(=O)Nc1c(C(C)C)cccc1C(C)C [Example 9, N'-[2,6-bis(1-methylethyl)phenyl]-N-heptyl-N-[(1phenylcyclopentyl)methyl]urea]"
